The values that follow come from US8173863B2, “Sucrose biosensors and methods of using the same” (Carnegie Institution of Washington, priority 2005, dated 2012).

The target of experiment [1] is Agrobacterium tumefaciens ThuE (AtThuE) sucrose binding protein carrying N192D (SEQ ID NO: 2) fused between ECFP and EYFP, sensor FLIPsuc4μ (FLIPsuc), wt (indic (Agrobacterium fabrum, UniProt A9CF11, N212D)). The experiment in a line: in vitro FRET titration of purified sensor FLIPsuc4μ. The conditions noted are these: for recognition (binding): even after addition of higher sugar concentrations (50× Kd); for binding (extent relative to sucrose): 5× Kd (20 μM), FRET micro plate assay (FIG. 4); for affinity relative to that for sucrose: FIG. 1C titration curves; for Δratio (maximum ratio change): in vitro, no binding to saturated binding. From the text:
(§1) Because the maltose/trehalose/sucrose binding protein from Agrobacterium tumefaciens (AtThuE) is 78.9% identical over predicted mature region of the SmThuE protein (SEQ ID NO: 2) and is 21.4% homologous to the maltose binding protein from E. coli (malE), we attempted to clone the AtThuE binding protein. To isolate the gene, a PCR product from genomic Agrobacterium tumefaciens (strain C58C1) DNA encoding mature AtThuE without signal sequence and stop codon was cloned into the KpnI site between ECFP and EYFP genes (FIG. 1A). The chimeric gene was inserted into pRSET (Invitrogen) and transferred to E. coli BL21(DE3)Gold (Stratagene). […] It is unknown whether this difference corresponds to a mutation or natural variation. Since N192D was outside the binding pocket and since AtThuE carrying the mutation was functional as a sugar sensor (see Table 1), all further experiments were carried out with the nanosensor named FLIPsuc4μ carrying the mutation N192D. FLIPsuc proteins were extracted from BL21(DE3)gold and purified as described (Fehr et al. 2002).
(§2) A DNA fragment encoding the mature Agrobacterium tumefaciens maltose/trehalose/sucrose BP protein was fused between the ECFP and EYFP sequences as described above. The chimeric gene was expressed in E. coli and the protein product purified and assayed for substrate specificity.
(§3) Substrate titration curves and substrate specificity analysis were performed on Safire (Tecan) fluorometer. ECFP was excited at 433 nm and emission was set to 485 nm and 528 nm for ECFP and EYFP, respectively (bandwidth 12 nm). All in vitro analyses were performed in 20 mM MOPS buffer at pH 7. FRET was determined as EYFP-ECFP emission intensity ratio. Using the change in ratio upon ligand binding, binding constants (Kd) were determined by fitting substrate titration curves to equation 1: S=1−(r−rmin)(rmax−rmin)=[S]b/[P]t=n[S]/(Kd+[S]), where [S] is substrate concentration; [S]b, concentration of bound substrate; n, number of binding sites; [P]t, total concentration of binding protein; r, ratio; rmin, minimum ratio in absence of ligand; rmax, maximum ratio at saturation. Hill coefficients were determined using Hill equation 2: S=(n[S]^n)/(Kd+[S]^n).
(§4) SmThuE is mainly functioning as a trehalose and maltose binding protein. Sucrose is thought to be transported to a lesser extent. FLIPsuc4μ was therefore incubated with trehalose, maltose and other related sugars to test for its binding capacities. Substrate-induced conformational changes were measured using FRET in micro plate assays. […] Maltose and glucose were chosen for further analysis of FLIPsuc4μ and its mutants since they are important sugars in plants and might therefore interfere with sucrose measurements in vivo. […] Most mutants show similar patterns with higher affinity for maltose than sucrose. FLIPsuc-10μ is the most significant example with an 83 times higher affinity for maltose than sucrose (Table 1). The D115 mutants both show the highest affinity for maltose compared to sucrose and […], but to a different extent.

The subject of experiment [2] is Alicyclobacillus acidocaldarius maltose uptake. The settings on record: cited from earlier work.
The target of experiment [3] is Agrobacterium tumefaciens AtThuE sensor FLIPsuc4μ variant D115E (FLIPsuc3m, FLIPsucD115E) (Agrobacterium fabrum, UniProt A9CF11, D135E/N212D). Nature of the experiment: in vitro FRET titration of affinity mutant FLIPsuc3m. In kind it is binding. The settings on record: for Δratio (delta ratio): no binding to saturated binding. Here is the method: as §3
(§5) To expand the dynamic range of the sucrose sensor, site directed mutagenesis was used as described above to lower the binding affinity of the sucrose binding domain. Affinity mutants of FLIPsuc4μ were generated. Alignment together with modeling of AtThuE with maltose binding proteins that have been crystallized helped predict residues important for ligand binding. […] Mutant forms carrying substitutions F113A, D115A, D115E, D115N, W244A, Y246A and W283A were generated using Kunkel mutagenesis (Kunkel et al. 1991) in the mutant background of FLIPsuc41t. The affinity mutants were designated as FLIPsucF113A, FLIPsucW283A, FLIPsucD115A, FLIPsucD115E, FLIPsucY246A, and FLIPsucW244A. All six mutants have lower affinities for sucrose than that of FLIPsuc4μ, with a Kd value varying from 10 μM to the higher mM range (Table 1). The starting ratio between EYFP and ECFP ranges from 1.4 to close to 2.0, which is also similar to what has been seen in other sugar sensors (FLIPmal, FLIPglu and FLIPrib). Introducing substitution F113A into the ThuE moiety of FLIPsuc4μ produced FLIPsuc10μ, which has a binding constant (Kd) of 10 μM for sucrose, thus providing a range for sucrose quantification between at least 1 μM and 90 μM (Table 1).

Experiment [4] addresses Agrobacterium tumefaciens AtThuE sensor FLIPsuc4μ variant F113A (FLIPsuc10μ, FLIPsucF113A) (Agrobacterium fabrum, UniProt A9CF11, F133A/N212D). The experiment in a line: in vitro FRET titration of affinity mutant FLIPsuc10μ. In kind it is binding. The settings on record: for Δratio (change in ratio): in vitro, no binding to saturated binding. Here is the method: as §3, §5

For experiment [5], the target named is Alicyclobacillus acidocaldarius maltose binding protein (AaMalE). The settings on record: cited from earlier work.
For experiment [6], the target named is Agrobacterium tumefaciens AtThuE sensor FLIPsuc4μ variant Y246A (FLIPsuc15m, FLIPsucY246A) (Agrobacterium fabrum, UniProt A9CF11, N212D/Y266A). The experiment in a line: in vitro FRET titration of affinity mutant FLIPsuc15m. The format is binding. The conditions noted are these: for Δratio: in vitro, no binding to saturated binding. Here is the method:
as §3, §5

Experiment [7] deals with Agrobacterium tumefaciens AtThuE sensor FLIPsuc4μ variant W283A (FLIPsuc88μ, FLIPsucW283A) (Agrobacterium fabrum, UniProt A9CF11, N212D/W303A). Nature of the experiment: in vitro FRET titration of affinity mutant FLIPsuc88μ. In kind it is binding. The settings on record: in vitro; for Δratio: no binding to saturated binding. Here is the method:
as §3, §5

In experiment [8] the target is Agrobacterium tumefaciens AtThuE sensor FLIPsuc4μ variant W244A (FLIPsuc46m, FLIPsucW244A) (Agrobacterium fabrum, UniProt A9CF11, N212D/W264A). The experiment in a line: in vitro FRET titration of affinity mutant FLIPsuc46m. In kind it is binding. Here is the method: as §3, §5
Experiment [9] concerns the target Agrobacterium tumefaciens ThuE (AtThuE) sucrose binding protein carrying N192D (SEQ ID NO: 2) fused between ECFP and EYFP, sensor FLIPsuc4μ (FLIPsuc), wt (indicator SEQ ID NO: 4) (Agrobacterium fabrum, UniProt A9CF11, N212D). Nature of the experiment: in vitro FRET titration of purified sensor FLIPsuc4μ.
From the text: as §1, §2, §3, §4

The target in experiment [10] is Agrobacterium tumefaciens AtThuE sensor FLIPsuc4μ variant D115A (FLIPsuc1m, FLIPsucD115A) (Agrobacterium fabrum, UniProt A9CF11, D135A/N212D). The experiment in a line: in vitro FRET titration of affinity mutant FLIPsuc1m. The format is binding. The conditions noted are these: for Δratio (delta ratio): no binding to saturated binding. The protocol: as §3, §5
The mark [11] stands for this setting: 20 mM MOPS pH 7, FRET titration.

The term Kd denotes a measure of binding affinity in units of concentration.

Consider `OCC1(O)OC[C@@H](O)[C@@H](O)[C@@H]1O` (some centres unmarked) [Fructose], for which the “recognition (binding)” value in experiment [1] is “not recognized”.
For `OC[C@H]1O[C@H](O[C@H]2O[C@H](CO)[C@@H](O)[C@H](O)[C@H]2O)[C@H](O)[C@@H](O)[C@@H]1O` [trehalose], the “binding (extent relative to sucrose)” value in experiment [1] is “to the same extent or better than sucrose”.
As for `OC[C@H]1OC(O)(CO)[C@@H](O[C@H]2O[C@H](CO)[C@@H](O)[C@H](O)[C@H]2O)[C@@H]1O` (some centres unmarked) [turanose], the “binding (extent relative to sucrose)” value in [1] is “to the same extent or better than sucrose”.
For `OC[C@H]1O[C@H](O[C@H]2[C@H](O)[C@@H](O)[C@@H](O[C@H]3[C@H](O)[C@@H](O)[C@@H](O[C@H]4[C@H](O)[C@@H](O)C(O)O[C@@H]4CO)O[C@@H]3CO)O[C@@H]2CO)[C@H](O)[C@@H](O)[C@@H]1O` (some centres unmarked) [maltotetraose], the “inhibition of uptake of radiolabeled maltose” value (shortened to “inhibition”) in [2] is “inhibited”.
For the compound `OC[C@H]1O[C@H](O[C@H]2[C@H](O)[C@@H](O)C(O)O[C@@H]2CO)[C@H](O)[C@@H](O)[C@@H]1O` (some centres unmarked) [maltose], the Kd in experiment [3] (setting [11]) is 1530 µM; in experiment [3] (FRET titration), 1500 µM; in experiment [4], 0.12 µM; in experiment [5] it was 1.5 µM; in experiment [6], 56 µM; in experiment [7] (setting [11]), 265 µM. The equilibrium dissociation constant (Kd) amounted to 26500 µM in experiment [8], 0.23 µM in experiment [9] and 51 µM in experiment [10] (setting [11]). Further, the “Δratio (delta ratio)” value in experiment [3] amounted to 0.39; in experiment [10] it was 0.37. Besides, the “Δratio (change in ratio)” value in experiment [4] amounted to 0.12. The Δratio in [6] is reported as 0.14; in experiment [7], 0.25; in [8] (in vitro, no binding to saturated binding), 0.42. Besides, the “binding (extent relative to sucrose)” value in experiment [1] was “to the same extent or better than sucrose”. Also, the “affinity relative to that for sucrose” value in experiment [1] is on record as “higher”. Moreover, in [1], the “Δratio (maximum ratio change)” value came out at 0.21.
For the compound `OC[C@H]1OC(O)[C@H](O)[C@@H](O)[C@H]1O` (some centres unmarked) [galactose], the “recognition (binding)” value in experiment [1] was “not recognized”.
As for `C[C@H]1O[C@H](O[C@H]2[C@H](O)[C@@H](O)[C@@H](O[C@H]3[C@H](O)[C@@H](O)C(O)O[C@@H]3CO)O[C@@H]2CO)[C@H](O)[C@@H](O)[C@@H]1N[C@H]1C=C(CO)[C@@H](O)[C@H](O)[C@H]1O` (some centres unmarked) [acarbose], the “inhibition” value in [2] is given as “inhibited”.
Turning to `OC[C@H]1O[C@H](OC[C@H]2OC(O)(CO)[C@@H](O)[C@@H]2O)[C@H](O)[C@@H](O)[C@@H]1O` (some centres unmarked) [palatinose], in experiment [1], the “binding (extent relative to sucrose)” value is given as “to lesser extent”.
Consider `OC[C@H]1OC(O)[C@H](O)[C@@H](O)[C@@H]1O` (some centres unmarked) [glucose], for which the Kd in experiment [3] (setting [11]) came to 9110 µM; in experiment [3] (FRET titration), 9100 µM; in experiment [4] it was 106 µM; in experiment [6] it was 554 µM; in experiment [7] (setting [11]) it was 7210 µM; in experiment [7] (FRET titration), 7200 µM. Also, the Kd in experiment [9] turned out to be 27 µM; in [10] (setting [11]), 16200 µM; in experiment [10] (FRET titration), 16000 µM. Also, the “Δratio (delta ratio)” value came to 0.44 in [3] and 0.50 in experiment [10]. Moreover, the “Δratio (change in ratio)” value in experiment [4] is on record as 0.12. Further, the Δratio in [6] was 0.07; in [7] it was 0.21. In addition, the “binding (extent relative to sucrose)” value in experiment [1] was “to lesser extent”. Moreover, in [1], the “affinity relative to that for sucrose” value is “in the same range as that for sucrose”. Moreover, the “Δratio (maximum ratio change)” value in [1] came out at 0.18.
On to cyclodextrins, for which the “inhibition” value in experiment [2] is given as “inhibited”.
As for `OC[C@H]1O[C@@H](O[C@H]2[C@H](O)[C@@H](O)C(O)O[C@@H]2CO)[C@H](O)[C@@H](O)[C@@H]1O` (some centres unmarked) [cellobiose], the “recognition (binding)” value in experiment [1] is given as “not recognized”.
